Measured values taken from patent US12053452B2 (priority 2021, dated 2024).
“Also recorded” adds a separate entry of the source. Where a name gives a salt, the structure may show the parent alone. Read-outs that look alike come from different tables or passages of the source.

Experiments:
[1] = human urine, after racemic MDMA; cited from earlier work
BTBR mice [2] = experiment: Social novelty preference test, BTBR (autism spectrum disorder model); type: in vivo; conditions: in vivo mice models of autism spectrum disorder (BTBR)
Description: (§1) This assay was conducted in adult male C57 and BTBR mice (n=6 per group) in a dedicated conditioning room where ambient light, sound, and human contact were tightly controlled. Social preference chambers consist of two polycarbonate boxes (13.5 cm wide×22.5 cm tall×31.0 cm deep), floored with rough-textured black ABS plastic, and connected to one another by a 1.25″ PVC T-junction. An infrared photobeam emitter/detector array is mounted at each intersection of the T-junction and each preference compartment, and as a mouse traversed the apparatus, it would break the photobeam upon entry to or exit from each preference compartment. Beam breaks started or stopped a counter on an interfaced computer, allowing automated collection of time spent in each compartment. At the end of each test, data were reported as time (in seconds) spent in each compartment, the number of entries into each compartment, and the average time spent in each compartment following an entry. Social preference tests were conducted in an iterative manner, with each test subject completing four distinct phases as described below. Between testing sessions, chambers were sanitized by wiping the insides with a disinfectant product provided by the UAMS Department of Laboratory Animal Medicine. At the end of the week (upon completion of all phases of the procedure), each apparatus was disassembled and all parts were sanitized. No food or water were available during social preference sessions, but were available in the home cage immediately afterwards.
A single social novelty preference session occurred the day after the sociability test, where one compartment contained a wire mesh cup with the same NIH Swiss mouse from the previous day inside (referred to now as the “familiar” mouse) while the other compartment contained a new male NIH Swiss stranger mouse inside the cup which previously contained the dummy mouse during the sociability test. […]

C57 mice [3] = experiment: Radiotelemetry of core temperature, C57; type: in vivo
Description: (§2) The radiotelemetry assay was conducted in adult male C57 and BTBR mice (n=6 per group) in a dedicated testing room where ambient light, sound, and human contact were tightly controlled.
(§3) Prior to surgical implantation of radiotelemetry probes, mice received 3 mg/kg meloxicam (IP), and anesthesia was induced with 4% inhaled isoflurane and maintained with 1-3% isoflurane (as needed) throughout the procedure at a flow rate of 1.5 litres/minute. The abdominal area of each animal was treated with depilatory cream, then sanitized with 3 alternating scrubs with iodine and alcohol. A rostral-caudal cut approximately 1.5 cm in length was made with sterile skin scissors, providing access to the intraperitoneal cavity. A cylindrical glass-encapsulated radiotelemetry probe (model ER-4000 E-Mitter, Mini Mitter, Bend, OR, USA) was then inserted. These probes measure 15.5 mm×6.5 mm and weigh approximately 1 gram. Incisions were closed (skin layer and muscle layer separately) using reverse cutting 5-0 Vicryl absorbable sutures for the muscle layer and 5-0 nylon suture material for the skin layer. Surgeries were carried out at least 7 days before initiation of experimental conditions, allowing time for incisions to heal and for animals to recover normal body weights. Following surgery, all implanted mice were individually housed in Plexiglas cages within the telemetry room for the duration of all experiments. Implanted transmitters produce activity- and temperature-modulated signals which are sent to a receiver (model ER-4000 Receiver, Mini Mitter Co., Inc.) underneath each cage. Following use, telemetry probes were removed from carcasses, wiped with alcohol swabs, and stored in the disinfectant solution until re-use.
(§4) At least 7 days after surgical implantation of radiotelemetry probes, mice in their individual home cages were placed atop a telemetry energizer/receiver, which powered probes and transmitted their data to an interfaced computer. Upon initiation of an experimental session, the computer collected two data updates from the probes at 5 min intervals: core temperature (in ° C.) on one channel, and locomotor counts (in arbitrary units, depending on the relative position of the probe atop the receiver) on the other. After at least 60 minutes of baseline data collection, mice were removed from their cages, injected with saline or a given dose of a specific drug, then returned to the home cage 24 hours of data collection.
(§5) Food and water were always freely available in the home cage. Mice were injected with ascending doses of a given drug, with at least 48 hours separating doses. Because there are few studies of drug effects in BTBR mice, the first drug dose tested occasionally elicited unexpectedly large locomotor effects in these animals. In these cases, smaller drug doses were tested next, after a washout period of at least one full day.

C57 mice [4] = experiment: Novelty preference test, C57; type: in vivo
Description: as §1
A single novelty preference session occurred the day after the habituation test, where one compartment contained an empty wire mesh cup and the other compartment contained an identical wire mesh cup with a novel dummy mouse inside. The position of the dummy mouse (left or right compartment) was counterbalanced across subjects. Dummy mice were constructed from 2.5″ lengths of white ¾″ PVC pipe, with a zip tie attached to one end (to mimic a tail) and two red dots drawn on the other end (to mimic eyes.) During this session, mice were weighed, administered an injection, and returned to their home cage for a 30 min pretreatment period. Mice were then introduced into the T-junction and allowed to explore both preference compartments for 15 minutes. These tests were conducted as a procedural control to ensure that any observed drug effects were not simply due to enhancement of the innate novelty preference of mice. Novelty preference sessions always occurred on Tuesdays or Wednesdays to prevent any weekend testing.

C57 mice [5] = experiment: Sociability test, C57; type: in vivo
Description: as §1
A single sociability session occurred the day after the novelty preference test, where one compartment contained a wire mesh cup with a dummy mouse inside while the other compartment contained a male NIH Swiss stranger mouse inside the previously empty cup. […] The position of the dummy mouse (left or right compartment) remained the same for each subject as during the novelty test the day before, thereby counterbalancing the position of the stranger mouse across subjects. NIH Swiss stranger mice were similar in mass and appearance to the dummy PVC mice, and were housed separately from the experimental subjects (C57 and BTBR mice) in the colony facility. The first time the experimental subjects ever encountered the stranger mice was when they entered the compartment where they were contained. During this session, mice were weighed, administered the same injection as the day before, and returned to their home cage for a 30 min pretreatment period. Mice were then introduced into the T-junction and allowed to explore both preference compartments for 15 minutes. Sociability tests always occurred on Wednesdays or Thursdays to prevent any weekend testing.

C57 mice [6] = experiment: Social preference procedure: compartment entries (proxy for locomotor stimulant effects), C57; type: in vivo; conditions: 10 mg/kg IP, social novelty test, 10 mg/kg
Description: as §1
(§6) Quantification of total entries into the preference compartments provided a proxy measurement for locomotor stimulant effects of the various doses of the various test drugs. This established a limit to the drug doses that can be tested in the social preference procedure, as induction of locomotor stimulant effects confounds preference assessments (because mice stop attending to the social stimuli in each compartment and instead spend their time engaged in locomotor behavior.) Motor activity varied across the distinct phases of social preference testing, in part because the habituation session is twice as long (30 minutes) as the novelty, sociability, and social novelty tests (15 minutes each), but also because mice emitted high levels of exploratory behavior in novel environments. Thus, as familiarity with the test apparatus increased over successive exposures to the chambers, the number of entries decreased.
(§7) (Note that entries were collected for every test, but drug effects on entries during earlier phases may be less reliable due to the confounding influence of changing familiarity with the apparatus across phases.)

C57 mice [7] = experiment: Social novelty preference test, C57; type: in vivo
Description: as §1
A single social novelty preference session occurred the day after the sociability test, where one compartment contained a wire mesh cup with the same NIH Swiss mouse from the previous day inside (referred to now as the “familiar” mouse) while the other compartment contained a new male NIH Swiss stranger mouse inside the cup which previously contained the dummy mouse during the sociability test. […] The position of the now familiar NIH Swiss mouse (left or right compartment) remained the same for each subject as during the sociability test the day before, thereby counterbalancing the position of the new NIH Swiss stranger mouse across subjects. As before, the new NIH Swiss stranger mice were housed separately from the experimental subjects (C57 and BTBR mice) in the colony facility, and the first time the experimental subjects ever encountered them was when they entered the compartment where they were contained. During this session, mice were weighed, administered the same injection as the day before, and returned to their home cage for a 30 min pretreatment period. Mice were then introduced into the T-junction and allowed to explore both preference compartments for 15 minutes. Social novelty tests always occurred on Thursdays or Fridays to prevent any weekend testing.

C57 mice [8] = conditions: mouse, in vivo; for locomotor activity: ip
BTBR mice [9] = experiment: Radiotelemetry of core temperature, BTBR; type: in vivo
Description: as §2, §3, §4, §5

BTBR mice [10] = experiment: Radiotelemetry of locomotor activity, BTBR; type: in vivo; conditions: 0 to 240 minutes
Description: as §2, §3, §4, §5

BTBR mice [11] = experiment: Social preference procedure: compartment entries (proxy for locomotor stimulant effects), BTBR; type: in vivo
Description: as §1, §6, §7

CC(N)Cc1ccc2c(c1)OCO2 (racemic) [MDA, (±)-3,4-methylenedioxyamphetmaine]
enantiomer with higher Cmax [1]: S-enantiomers were higher

CNC(C)Cc1ccc(OC2OC(C(=O)O)C(O)C(O)C2O)c(OC)c1 (stereo not shown) [HMMA glucuronide]
enantiomer with higher Cmax [1]: S-enantiomers were higher

CNC(C)Cc1ccc(OS(=O)(=O)O)c(OC)c1 (stereo not shown) [HMMA sulfate]
enantiomer with higher Cmax [1]: Higher R-enantiomer Cmax

CN[C@H](C)Cc1ccc2c(c1)OCO2 [R(−)-MDMA, (2R)-1-(1,3-benzodioxol-5-yl)-N-methylpropan-2-amine]
pro-social behaviour (BTBR mice [2]): promotes pro-social behaviour
effect on core temperature (C57 mice [3]; 10 mg/kg IP): neither of the mixtures (e.g., exemplary composition 2(i)) nor pure R(−)-MDMA (e.g., exemplary composition 7) elicited significant effects on the core temperature
effect on core temperature (C57 mice [3]; 30 mg/kg IP): neither of the mixtures nor pure R(−)-MDMA elicited significant effects on the core temperature
novelty preference (time spent with the dummy mouse) (C57 mice [4]; 10.0 mg/kg IP): had no effects on locomotor activity (see FIG. 4) or novelty preference
novelty preference (time spent with the dummy mouse) (C57 mice [4]; various doses IP): no systematic effects on novelty preference
sociability (time spent with the stranger mouse vs dummy) (C57 mice [5]; 3.0 mg/kg IP): elicit significant effects on sociability
sociability (time spent with the stranger mouse vs dummy) (C57 mice [5]; 10.0 mg/kg IP): largest effect on sociability
compartment entries (locomotor stimulant effect) (C57 mice [6]): did not increase compartment entries; also recorded: had no effects on locomotor activity
compartment entries (locomotor stimulant effect) (C57 mice [6]; listed as R-(−) MDMA): no stimulant effect on the motor activity
social novelty preference (new stranger mouse vs familiar mouse) (C57 mice [7]; 3.0 mg/kg IP): elicit significant effects on sociability
social novelty preference (new stranger mouse vs familiar mouse) (C57 mice [7]; 10 mg/kg IP, 10 mg/kg): largest effect on social novelty preference
social novelty preference (new stranger mouse vs familiar mouse) (C57 mice [7]; 10 mg/kg IP, listed as R-MDMA, 10 mg/kg): strong preference for the new stranger mouse
locomotor activity (C57 mice [8]; 10 mg/kg): did elicit significant motor stimulation
locomotor activity (C57 mice [8]; 30 mg/kg): did not elicit significant motor stimulation
effect on core temperature (BTBR mice [9]; 30 mg/kg IP): no significant effects on core temperature were observed
effect on core temperature (BTBR mice [9]; various/increasing doses IP): did not elicit significant effects on core temperature
locomotor activity (BTBR mice [10]; 10 mg/kg IP): no significant motor stimulation was observed
locomotor activity (BTBR mice [10]; 30 mg/kg IP): no significant motor stimulation was observed
compartment entries (locomotor stimulant effect) (BTBR mice [11]; 3.0 mg/kg IP, social novelty test, 3 mg/kg): reduced entries; also recorded: suppresses the locomotor activity
compartment entries (locomotor stimulant effect) (BTBR mice [11]; all tested doses IP): do not influence locomotor activity

CN[C@@H](C)Cc1ccccc1 [S(+)-methamphetamine, S-methamphetamine]
locomotor activity, strain comparison C57 vs BTBR (C57 mice [8]): no significant strain differences observed at any dose
locomotor effects vs saline (C57 mice [8]): effects were not different from saline

CN[C@@H](C)Cc1ccccc1 [methamphetamine]
novelty preference (time spent with the dummy mouse) (C57 mice [4]; various doses IP): no systematic effects on novelty preference
sociability (time spent with the stranger mouse vs dummy) (C57 mice [5]; various doses IP): no systematic effects on sociability
social novelty preference (new stranger mouse vs familiar mouse) (C57 mice [7]; various doses IP): no systematic effects on social novelty preference
